{"source": "patent US8535740B2", "about": "“Compositions from Nigella sativa” (priority 2002, dated 2013)", "key": {"[1]": {"test_system": "iNOS-mediated NO biosynthesis in C2C12 myocytes", "test": "LTI cytokine-stimulated NO biosynthesis in C2C12 myocytes", "assay_type": "cell-based, murine", "settings": "Mus musculus, value computed on the basis of TQ content, LPS/TNFα/IFγ stimulation 20 hours, (95% confidence interval), read-out: Median Inhibitory Concentration for iNOS-mediated NO biosynthesis, C2C12 Myocytes", "procedure": "Mouse C2C12 myoblasts (American Type Culture Collection, Manassas, Va.) were maintained in Dulbecco's modified Eagle's medium (DMEM) supplemented with 10% fetal calf serum (FCS), 50 units/ml penicillin and 50 μg/ml streptomycin. As cells reached confluence, the medium was switched to the differentiation medium containing DMEM and 2% horse serum. Medium was changed every other day. […] At the end of the treatment period, media were sampled for determination of NO. […] Determination of nitrite in waters by microplate fluorescence spectroscopy and HPLC with fluorescence detection. Anal Chem. Aug. 1 1999; 71(15):3003-3007). In a separate, black-walled, 96-well, microtiter plate, a 7 μL aliquot of a 4.8×10^-4 mol NBDM/L solution was added to 200 μL of the supernatant media followed by the addition of 15 μL of concentrated phosphoric acid. After a reaction time of 30 minutes at ambient temperature, the fluorescence was read with 485 nm excitation filter and a 530 nm emission filter in a Packard Fluorocount spectrofluorometer (Model #BF10000, Meridan, Conn.). […] Quantitative analysis of dose-effect relationships: the combined effects of multiple drugs or enzyme inhibitors."}, "[2]": {"test_system": "prostate specific antigen (PSA) secretion from LNCaP prostate cells", "test": "Prostate specific antigen secretion from LNCaP prostate cells", "assay_type": "cell-based, human", "settings": "for Effect on PSA Secretion over 24 Hours: LNCaP cells; for PSA secretion: 24 hours", "from_the_text": "Chemicals—PSA was quantified from the cell culture supernatant fluid using the Quantikine Human KLK3/PSA Immunoassay kit (R&D Systems, Inc., Minnaepolis, Minn.). All other materials used in this example were purchased from Sigma (St. Louis, Mo.) or otherwise noted and were of the highest purity commercially available. The N. sativa samples used in this study were those commercial-scale extracts described in Example 1. Cell culture and treatment—The LNCaP prostate cell line, which produces PSA, was used to study the effects of commercial-scale N. sativa scale extracts of Example 1 and pure TQ on the secretion of PSA. LNCaP cells were purchased from the American Type Culture Collection (ATCC, Manassas, Va.) and sub-cultured according to instructions supplied by ATCC. Prior to experiments, cells were cultured in DMEM containing 10% FBS-HI added 50 units penicillin/ml and 50 μg streptomycin/ml, and maintained in log phase prior to experimental setup. Cells were grown in a 5% CO2 humidified incubator at 37° C. Components of medium included: (1) 10% FBS/DMEM (Fetal Bovine Serum/Dulbecco's Modified Eagle's Medium) containing 4.5 g glucose/L; (2) 50 U/ml penicillin; and (3) 50 μg/ml streptomycin. Growth medium was made by adding 50 ml of heat inactivated FBS and 5 ml of penicillin/streptomycin to 500 ml DMEM. This medium was stored at 4° C. Before use, the medium was warmed to 37° C. in a water bath. LNCaP cells were seeded at an initial density of 6×10^4 cells/cm^2 in 96-well plates. For two days, the cells were allowed grow to reach confluence. On day three post seeding, cells were treated with TQ, NS8, NS9, NS10, Spent#1, and NSSpent#2 at the concentrations listed in FIGS. 5, 6 and 7. Twenty-four hours later, the supernatant media were sampled and assayed for PSA."}, "3T3-L1 adipocytes": {"test_system": "3T3-L1 adipocytes", "test": "Lipolysis (glycerol / free fatty acid release) in 3T3-L1 adipocytes", "assay_type": "cell-based, murine", "settings": "forskolin 82 μg/mL, test materials 5 μg/mL (FIG. 9)", "procedure": "Cell culture and treatment-Culture and treatment of 3T3-L1 adipocytes and C2C12 myocytes was as described in Example 5. Concentrations of the forskolin positive control and test materials are listed in FIG. 9 for adipocytes and FIG. 10 for myocytes. Glycerol assay-Free fatty acid release from 3T3-L1 adipocytes or C2C12 myocytes was quantified by measuring glycerol secretion into the medium. Glycerol was measured spectrophotometrically using the Free Glycerol Determination Kit ([…], Sigma) and an EL 312e Microplate BIO-KINETICS spectrophotometer (BioTek, Winooski, Vt.). Data analysis-Glycerol release from adipocytes and myocytes was expressed, respectively, as the percent increase in free fatty acid secretion (FIG. 9) and relative glycerol content (glycerol index FIG. 10) ±95% confidence intervals of eight observations for one of three representative experiments."}, "[3]": {"test_system": "IL-6 secretion in 3T3-L1 adipocytes", "test": "IL-6 secretion in t10-CLA-stimulated 3T3-L1 adipocytes", "assay_type": "cell-based, murine", "procedure": "Treatment—Test materials were added four hours prior to the addition of t10-CLA at a concentration of 50 μM. Following overnight incubation, the supernatant media were sampled for determination of IL-6 and adiponectin. Interleukin-6 assay—The IL-6 secreted into the medium in response to […] stimulation was quantified using the Quantikine® Mouse IL-6 Immunoassay kit with no modifications (R&D Systems, Minneapolis, Minn.). […] All supernatant media samples were diluted 1:30 for quantification. Statistical Calculations and Interpretation—Test materials and were assayed in duplicate, while solvent controls were replicated eight times. IL-6 and adiponectin secretion were represented relative to the IL-6 and adiponectin secretion of the t10-CLA only controls as the IL-6 and adiponectin index and differences among the means were analyzed by the student's t-test assuming a five percent probability of a type I error (Excel; Microsoft, Redmond, Wash.)."}}, "note": "Marks after values point to notes of the source that are not given here."}
{"smiles": "CC1=CC(=O)C(C(C)C)=CC1=O", "note": "[Thymoquinone (Sigma), thymoquinone]", "values": [{"measurement": "IC50", "setting": "[1]", "value": 1.9, "unit": "µg/mL"}, {"measurement": "Effect on PSA Secretion over 24 Hours", "setting": "[2]", "value": "Decreased PSA at 5 and 10 μg/mL, dramatic increase"}, {"measurement": "Effect on PSA Secretion over 24 Hours", "setting": "[2]; listed as TQ", "value": "decreased PSA only at the two lowest doses tested"}, {"measurement": "PSA secretion", "setting": "[2]; highest dose (100 μg/mL per Table 4)", "value": 207, "unit": "%"}, {"measurement": "PSA secretion", "setting": "[2]; second highest dose (50 μg/mL per Table 4)", "value": 166, "unit": "%"}, {"measurement": "free fatty acid release in adipocytes", "setting": "3T3-L1 adipocytes", "value": "induced free fatty acid release"}, {"measurement": "effect on IL-6 secretion in t10-CLA-stimulated adipocytes", "setting": "[3]; concentrations of Table 8", "value": "inhibited IL-6 secretion"}, {"measurement": "IL-6 Index", "setting": "[3]; relative to t10-CLA only control (100), 50 μM t10-CLA, overnight, each material at its tabulated concentration", "value": "75*"}]}
